Patent US20060159715A1, “Conjugate of fine porous particles with polymer molecules and the utilization thereof” (priority 2003, published 2006)

Details: L-DOPA added after three-hour incubation in phosphate buffer; FIG. 5
Excerpt: Hydroquinone was supported on conjugate in the same manner as in Example 4 except that hydroquinone was used in place of pyrene. Hydroquinone and clay particles-supported hydroquinone were examined for the resistance to the oxidation of L-DOPA.

SMILES: Oc1ccc(O)cc1 [hydroquinone, Hydroquinone]
- antioxidation property against L-DOPA oxidation: completely lost antioxidation property
